According to US5648347A, “Arylmorpholine, preparation and use” (Glaxo Wellcome Inc., priority 1991, dated 1997):
Where a name gives a salt, the structure may show the parent alone.

These molecules were tested on tetrabenazine-induced sedation (assay: Antitetrabenazine Test: prevention of tetrabenazine-induced sedation in mice). Details: 0.5 h; Antitetrabenazine Activity in the Mouse; compound ip 30 min before tetrabenazine hydrochloride (ip); scored 30 min after tetrabenazine; read-out: ED50 (amount of the test compound required to reverse the tetrabenazine effects in 50 percent of the animals tested).
Format: in vivo, Mouse (CD1 males)
Method: Prevention of tetrabenazine-induced sedation was measured using a modification of the method of Vernier et al., First Hahnemann Symposium on Psychosomatic Medicine, ed. Nodim and Moyer, pub. Lea and Febiger, Philadelphia, 1962.
Mice, groups of 12 CD1 males each, were injected intraperitoneally (ip) with the hydrochloride salt of a compound of formula (I) in physiological saline solution or with physiological saline solution alone. Thirty minutes later each of the mice was injected (ip, 35 mg/kg) with a solution of tetrabenazine hydrochloride. Thirty minutes after the injection of tetrabenazine each mouse was examined for its level of exploratory behavior which was scored on a modification of the arbitrary scale defined by Vernier et. al. The result reported in Table I as the ED50 value is the amount of the test compound required to reverse the tetrabenazine effects in 50 percent of the animals tested.
`C[C@H]1CO[C@H](c2ccc(F)cc2)[C@@H](C)N1` (relative stereo) [Example 13, (+-)-(2R*,3R*,5S*)-2-(4-fluorophenyl)-3,5-dimethylmorpholine hydrochloride] was tested, and the ED50 was 4 mg/kg. `C[C@@H]1[C@@H](c2cccc(F)c2)OC[C@H](C)N1C` (relative stereo) [Example 14, (+-)-(2R*,3R*,5S*)-2-(3-fluorophenyl)-3,4,5-trimethylmorpholine hydrochloride] gave an ED50 of 8 mg/kg. In the case of `C[C@@H]1CO[C@@H](c2ccc(F)c(F)c2)[C@H](C)N1.Cl` [Example 2, (2S,3S,5R)-2-(3,4-difluorophenyl)-3,5-dimethylmorpholine hydrochloride], the ED50 was 8 mg/kg. With `C[C@@H]1CO[C@@H](c2cccc(F)c2)[C@H](C)N1C` [Example 16, (2S,3S,5R)-2-(3-fluorophenyl)-3,4,5-trimethylmorpholine hydrochloride] the ED50 was 8 mg/kg. In the case of `C[C@H]1CO[C@H](c2ccc(F)cc2)[C@@H](C)N1` [Example 6, (2R,3R,5S)-2-(4-fluorophenyl)-3,5-dimethylmorpholine hydrochloride], the ED50 was 10 mg/kg. `C[C@@H]1[C@@H](c2ccc(F)cc2)OC[C@H](C)N1C` (relative stereo) [Example 18, (+-)-(2R*,3R*,5S*)-2-(4-fluorophenyl)-3,4,5-trimethylmorpholine] gave an ED50 of 6 mg/kg. For `C[C@@H]1CO[C@@H](c2ccc(F)cc2)[C@H](C)N1` [Example 12, (2S,3S,5R)-2-(4-fluorophenyl)-3,5-dimethylmorpholine hydrochloride], the ED50 was 6 mg/kg. Work on `C[C@H]1CO[C@H](c2cccc(F)c2)[C@@H](C)N1` (relative stereo) [Example 1, (+-)-(2R*,3R*,5S*)-2-(3-fluorophenyl)-3,5-dimethylmorpholine hydrochloride] yielded an ED50 of 4 mg/kg. Molecule `C[C@H]1CO[C@H](c2cccc(F)c2F)[C@@H](C)N1` (relative stereo) [Example 7, (+-)-(2R*,3R*,5S*)-2-(2,3-difluorophenyl)-3,5-dimethylmorpholine hydrochloride] has an ED50 of 4 mg/kg.
